These results are taken from a melting point compilation (Tetko et al.; mined from patent text by program, amines drawn as free bases though some values may be those of a salt).

By melting point is commonly meant the temperature, or range, at which the solid turns liquid.

The molecule `COC(=O)C(=C/c1c(OC)cc(OC)cc1OC)/C(=C\c1ccccc1)C(N)=O` yielded a melting point of 169 to 171 °C.

In the case of `CCOc1ccc(C(CC(N)=O)N2C(=O)c3ccccc3C2=O)cc1` (centres undefined), the melting point came to 191 °C. Then `COCOc1cc(Br)ccc1-c1cc(-c2cccc([N+](=O)[O-])c2)c(C#N)c(NC(=O)c2cccs2)n1`, with 166 to 167 °C; and `CCCCCCCCCCCC[C@]1(C)OO[C@@H]2C[C@H]1CC(=O)[C@@H]2C`, with 35 °C; and `Cn1nc(C(F)(F)F)cc1Oc1cc(C#N)cc(-c2cc(C(F)(F)F)nn2C)n1`, with 164 to 165 °C. `Nc1ccc(CP2(=O)OCCO2)cc1`: the melting point was 183 to 184 °C. Then `Cn1cc(-c2cccc(C(F)(F)F)c2)c(=O)c(-c2ccccc2C(F)(F)F)c1`, with 135 to 138 °C; and `COc1cc2cc(/C=N\O)sc2cc1OC`, with 211 to 215 °C; and `O=C(CC(=O)Nc1ccc2c(c1)NC(=O)/C2=C\c1ccc[nH]1)Nc1ccc(F)cc1`, with over 300 °C.

For the molecule `Fc1ccc(-c2cc(N3CCN(c4ccc(F)cc4)CC3)nc3c2CCCCCC3)cc1`, the melting point was 130 to 131 °C.

Turning to `O=C1NC(=O)c2c1c(-c1ccccc1)cc1c2c2cc(O)ccc2n1CCCCCCBr`, the melting point was in the range of 214 to 216 °C.

`COc1ccc(CC(=O)N2CCCCC2CC(c2ccccc2)c2ccccc2)cc1OC` (centres undefined) yielded a melting point of 113 to 114 °C. `Cc1c(C#N)c(-c2ccc(C#N)cc2)c(C)n1Cc1ccc(Cl)c(COC(=O)CCC(=O)O)c1`: the melting point lay within 149 to 151 °C. Then `COC(=O)C1=C(C)NC(C)=C(C(=O)O)C1c1ccccc1C(F)(F)F` (single isomer, unassigned; (+)), with 109 °C; and `O=C(Oc1ccccc1)N1Cc2ccccc2C(c2ccccc2Cl)c2ccccc21` (centres undefined), with 95 to 99 °C.

Consider `CC(=O)NC1CCC2=C(CC1)C(=O)C(CC(=O)O)C=C2` (centres undefined), for which the melting point worked out at 198 °C.

`Brc1cccc2[nH]cc(Sc3ccccc3)c12` registered a melting point of 137 to 139 °C. For the molecule `COc1cc(CCN2CCN(C)CC2)cc(OC)c1-c1ccc(C[C@H](NC(=O)c2c(Cl)cccc2Cl)C(=O)O)cc1`, the melting point amounted to 179 °C.

The molecule `CC(=O)N1CCc2cc(CC(C)Br)cc(C#N)c21` (centres undefined) gave a melting point of 115 to 117 °C. The figure for `CCOP(=O)(Cc1ccc(C2=NCCO2)cc1)OCC` is 65 °C; for `Cc1cccc([N+](=O)[O-])c1CO` it is 67 to 68 °C; for `CS(=O)(=O)Oc1cc(OS(C)(=O)=O)cc(OS(C)(=O)=O)c1` it is 145 to 149 °C.

Molecule `COCc1cnc2c(NC(=O)c3c(Cl)cccc3Cl)cccc2c1COC` displayed a melting point of 160 to 161 °C. `O=C(O)c1csc(Nc2ccc(Cl)c(C(F)(F)F)c2)n1` registered a melting point of 254 to 256 °C. Take `CCOC(=O)c1c(C(C)(C)O)nc(CC)n1Cc1ccc(-c2ccccc2-c2nnn[nH]2)cc1`: the melting point lay in the range of 166 to 167 °C. `Cn1c(C(=O)c2ccc(Cc3ccc(F)cc3)o2)c(O)c(=O)n1C` displayed a melting point of 110 to 111 °C. The figure for `N#CC(=Cc1ccc2[nH]ccc2c1)S(=O)(=O)c1ccc([N+](=O)[O-])cc1` is 219 to 221 °C; for `Cc1csc(-c2nc3c4ccccc4ccn3c2N)c1` it is 152 to 155 °C. The figure for `Cc1nc2c(cc1C(=O)NC(=N)N)CCCCC2Cl` (centres undefined) is 153 to 156 °C.

Turning to `Cn1c(=O)n(CC(=O)OCCF)c(=O)n(-c2cc(Oc3ncc(C(F)(F)F)cc3Cl)ccc2Br)c1=O`, the melting point is 93 to 95 °C. As for `COc1ccc(OC(C)(C)C(=O)O)cc1OCCCc1cn(-c2ccc(C(F)(F)F)cn2)nc1C(C)C`, the melting point lay within 106 to 107 °C. Then `N#CCOc1coc2ccccc2c1=O`, with 145 to 146 °C. The molecule `OC1C(COCC(F)(F)F)OC(n2cnc3c(NC4CCCC4)ncnc32)C1O` (centres undefined) displayed a melting point of 74 to 76 °C. As for `O=C(Nc1ccc(Cl)cc1)n1cc(F)c(=O)[nH]c1=O`, the melting point was over 260 °C. The figure for `CC(C)(Oc1cccc(OCCCc2cn(-c3ccc(C(F)(F)F)cn3)nc2-c2ccccc2)c1)C(=O)O` is 141 to 142 °C; for `O=C(c1ccccc1CBr)c1cc(F)ccc1CBr` it is 118 to 119 °C.

For `COc1cc2c(cc1OC)-c1ncc(C(N)=O)c(=O)n1CC2`, the melting point lay within 313 to 315 °C. Molecule `CC(C)CCOc1c(-c2ccc(S(N)(=O)=O)cc2)cnn(C(C)(C)C)c1=O` displayed a melting point of 153 to 155 °C.

`OC1(C(F)(F)F)ON=C(c2ccc(Cl)cc2)C1Cl` (centres undefined) came in with a melting point of 126 to 127 °C. Then `COc1ccc(-n2c3ccccc3c3cc(C(C#N)=C(C#N)c4cc(F)cc(F)c4)ccc32)cc1`, with 140 to 142 °C.

In the case of `C#CCNC(=O)Oc1cc(-n2c(=O)cc(C(F)(F)F)n(C)c2=O)c(F)cc1Cl`, the melting point fell in the range of 144 to 146 °C. The molecule `Cc1csc(-c2ncccc2C(=O)c2ccccn2)c1` showed a melting point of 122 to 123 °C. With `CCOC(=O)C(=O)CC(=O)CC(=O)c1ccc(C)cc1`, the melting point was 76 °C.

For the molecule `CS(=O)c1ncccc1C(=O)c1cnoc1C1CC1` (centres undefined), the melting point was in the range of 148 to 152 °C.

Molecule `COC(=O)c1ccc(SC)c(OC(C)C)c1` yielded a melting point of 41 to 43 °C. `CCOC(=O)Cc1ccc2cc(O)ccc2c1`: the melting point was 81 to 83 °C. Then `CC(C)c1nccn1N=Cc1cc(C(C)(C)C)c(O)c(C(C)(C)C)c1`, with 159 to 160 °C; and `OCCc1ncn(C(c2ccccc2)(c2ccccc2)c2ccccc2)n1`, with 127 to 129 °C. Molecule `COc1ccc(C(=O)Nc2cc(NC(=O)c3cccc(NS(C)(=O)=O)c3)ccc2C)cc1OC` came in with a melting point of over 300 °C. Then `CCn1c(CO)nc(C(C)C)c1Sc1cc(C#N)cc(C#N)c1`, with 167 to 169 °C; and `CC12CCC(C(=Cc3ccc(C=O)cc3)C1=O)C2(C)C` (centres undefined), with 116 °C.

As to `c1ccc(-c2ncc(-c3cnc(C4CCCNC4)[nH]3)cn2)cc1` (centres undefined), the melting point came to 140 °C. `Cc1ccc(Cc2cnc(NCCCNc3ccc(C#N)cn3)[nH]c2=O)cn1` returned a melting point of 175 to 177 °C.

The molecule `COc1ccc(-c2cc(=O)n(C)c(=O)[nH]2)cc1OC` registered a melting point of 262 to 263 °C.

For `CC(C)Sc1c(C2=NC(C)(C)CO2)oc(Br)c1Br`, the melting point lay within 71 to 72 °C. `CCOC(=O)c1cnc2n(c1=O)CCc1cc(OC)ccc1-2` showed a melting point of 158 to 160 °C. The molecule `CC(C)N1CNS(=O)(=O)c2sc(Cl)cc21` registered a melting point of 100 to 102 °C. As to `CC(C)C(Cl)C(=O)Nc1c(C(=O)CC(=O)Nc2nccs2)cccc1C(F)(F)F` (centres undefined), the melting point was 186 °C.

`CCOC(=O)c1cc(-c2csc(-c3ccnc(NCC4CC4)c3)n2)c(=O)[nH]c1C` displayed a melting point of over 260 °C.

`Brc1ccc(OC2CCOCC2)cc1` displayed a melting point of 53 to 55 °C. The figure for `O=C(Nc1ccc(-n2nc(C(F)(F)F)cc2C(F)(F)F)cc1)c1c(F)c(F)cc(F)c1F` is 235 to 237 °C. Then `CN1CCN(N=C2CC(c3ccc(C(F)(F)F)cc3)Cc3[nH]c4ccc(Cl)cc4c(=O)c32)CC1` (centres undefined), with 330 °C. `CCOc1ccc(-c2nc(-c3ccc(N)c(C(=O)O)c3)cs2)cc1OCC` yielded a melting point of 228 to 229 °C.

`CN1CCN(c2ccccc2C=C2NC(=O)N(c3ccc(Cl)cc3)C2=O)CC1` yielded a melting point of 193 to 194 °C. The figure for `O=C1c2ccccc2C(=O)N1CCCCOc1ccc(-c2ccccc2)cc1` is 110 to 111 °C; for `O=C(O)c1cc2c(C(F)(F)F)cccc2s1` it is 178 to 179 °C; for `O=C1C=C(c2ccccc2)NCCN1` it is 204 to 206 °C. Molecule `COC(=O)Cc1ccc(CNC(=O)C2Cc3ccccc3N2S(=O)(=O)c2ccc(-c3ccc(F)cc3F)cc2)cc1` (centres undefined) showed a melting point of 68 to 72 °C. The figure for `Nc1nc(N)c2ncn(C(O)C3C=CCC3)c2n1` (centres undefined) is 152 to 155 °C; for `Fc1ccc(Nc2ncnc3cnc(N4CCC(CCCC5CCNCC5)CC4)nc23)cc1Cl` it is 128 to 130 °C. The figure for `COC(=O)C1=C(C)NC(C)=C(C(=O)OCC2CCCO2)C1c1cccc(F)c1` (centres undefined) is 66 to 68 °C; for `NS(=O)(=O)c1ccc(C#Cc2cnc3c(C(F)(F)F)cc(-c4ccc(C(F)(F)F)cc4)cn23)cc1` it is 278 to 280 °C; for `N#CCOc1cccc2c1SCCC2` it is 66 °C. The figure for `Clc1ccc2[nH]cc([C@H]3CC[C@@H](N4CCN(c5cccc6[nH]ccc56)CC4)CC3)c2c1` is 283 to 285 °C. With `COCc1sc(C(C)(O)c2ccsc2)nc1C` (centres undefined), the melting point lay in the range of 71 to 73 °C.

Turning to `COc1ccc(-c2nc(NC(=N)N)sc2-c2ccc(OC)cc2)cc1`, the melting point lay within 121 to 130 °C. Molecule `COc1ccc(-n2c(C)cc(=O)[nH]c2=S)cc1` showed a melting point of 248 to 249 °C. `Cc1nc(N2CCN(Cc3ccccc3)C2=O)sc1C(N)=O` had a melting point of 217 to 218 °C. Molecule `CCOC(=O)CNc1ncccc1NC(=O)c1ccc(Cl)cc1` displayed a melting point of 133 to 134 °C. For `O=c1[nH]c2ccccc2cc1-c1csc(N(Cc2ccccc2)S(=O)(=O)c2ccccc2)n1`, the melting point fell in the range of 228 to 232 °C. For the molecule `CNC(=O)c1cccc(NC(=O)Cc2ccc(Br)cc2)c1`, the melting point fell in the range of 165 to 166 °C. The figure for `COc1ccc(Oc2ccccc2NS(C)(=O)=O)cc1` is 81 to 83 °C.

Molecule `O=C(O)CC=C(c1ccccc1)c1ccccc1` returned a melting point of 109 to 111 °C. Consider `CSCC(C)C(=O)N(C)c1sc(-c2cccnc2)nc1Cl` (centres undefined), for which the melting point lay within 70 to 73 °C. The molecule `COCOc1cc(OC)ccc1Br` showed a melting point of 40 to 42 °C. Turning to `Cc1nc2cc(C(=O)O)c(C(=O)O)cc2n1C`, the melting point fell in the range of 308 to 312 °C.

`COC(C)(OC)c1ccc(C2(O)CCC(C)(C)CC2)cc1` yielded a melting point of 88 °C. The figure for `CCN1CCCC(CC)(c2ccc(Nc3ncc4ccc(-c5ccccc5N(C)S(C)(=O)=O)n4n3)cc2)C1` (centres undefined) is 93 to 101 °C; for `Cc1cc(C(O)C(Cl)(Cl)Cl)n(C)c1` (centres undefined) it is 55 to 57 °C.
